In the Bradley open melting point set (2014) one finds melting point data, which are given here for 61 molecules.

Structures can show the parent of a compound that is named as a salt.

What is called melting point is the temperature, or range, at which the solid turns liquid.

In the case of `C[C@]12CC[C@H]3[C@@H](CCC4=CC(=O)CC[C@@H]43)[C@@H]1CC[C@@H]2O` [Nandrolone], the melting point came out at 112 °C.
In turn, `CS(=O)c1ccc(B(O)O)cc1` (stereo unspecified) [4-(methylsulfinyl)benzeneboronic acid] showed a melting point of 170 °C.
`O=[N+]([O-])c1ccc(CCl)cc1` [4-nitrobenzyl_chloride] showed a melting point of 73 °C.
For `CB(C)Br` [bromodimethylborane] the value was -129 °C; for `CC(C)(C)OC(=O)N1CCC[C@H](O)C1` [(S)-1-boc-3-hydroxypiperidine], 37 °C; for `CCOC(=O)C1(c2ccccc2)CCN(C)CC1` [Meperidine], 188 °C.
For `OCC(O)COc1ccccc1` (stereo unspecified) [3-phenoxy-1,2-propanediol] the value was 58 °C; for `CCCCCCCCC(=O)CC` [3-undecanone], 13 °C.
For `Cc1ccc(B(O)O)cc1Cl` [3-chloro-4-methylbenzeneboronic acid] the value was 227 °C; for `CC(=O)Nc1ccc(C=O)cc1` [4-acetamidobenzaldehyde], 160 °C.
Molecule `Cc1cc(CCl)c(C)cc1CCl` [2,5-Di(Chloromethyl)-p-xylene] returned a melting point of 132 °C.
Next, `COC(=O)c1ccncc1` [methyl isonicotinate]: 8 °C.
`CCCCC/C=C\C/C=C\CCCCCCCC(=O)O` [linoleic acid]: the melting point was -12 °C.
`CCC(C)(O)C#CC(C)(O)CC` (stereo unspecified) [3,6-dimethyl-4-octyn-3,6-diol] yielded a melting point of 54 °C.
Next, `O=C(OC[C@H]1O[C@@H](OC(=O)c2cc(O)c(O)c(OC(=O)c3cc(O)c(O)c(O)c3)c2)[C@H](OC(=O)c2cc(O)c(O)c(OC(=O)c3cc(O)c(O)c(O)c3)c2)[C@@H](OC(=O)c2cc(O)c(O)c(OC(=O)c3cc(O)c(O)c(O)c3)c2)[C@@H]1OC(=O)c1cc(O)c(O)c(OC(=O)c2cc(O)c(O)c(O)c2)c1)c1cc(O)c(O)c(OC(=O)c2cc(O)c(O)c(O)c2)c1`: 210 °C; `N#CC1(C#N)C=C(c2ccccc2)c2ccccc21` [3-phenyl-1H-indene-1,1-dicarbonitrile]: 135 °C.
Next, `Nc1ccccn1` [2-aminopyridine]: 58 °C.
For `CC(=O)Nc1ccc(Br)c(C(F)(F)F)c1` [4'-bromo-3'-(trifluoromethyl)acetanilide] the value was 118 °C; for `Fc1ccccc1` [Fluorobenzene], -40 °C.
Turning to `O=C4\C=C2/[C@]([C@H]1CC[C@@]3([C@@](O)(C(=O)CO)CC[C@H]3[C@@H]1CC2)C)(C)CC4` [cortexolone], the melting point is 208 °C.
Molecule `CC1(C)C=Nc2ccccc21` [3,3-dimethyl-3H-indole] came in with a melting point of 228 °C.
Next, `CN1[C@@H]2CC[C@H]1CC(=O)C2` [Tropinone]: 43 °C; `Oc1ccc(Cl)cc1-c1ccno1` [4-chloro-2-(5-isoxazolyl)phenol]: 202 °C.
Consider `CC(C)c1ccc(/C=C/[N+](=O)[O-])cc1` [4-isopropyl-beta-nitrostyrene], for which the melting point was determined as 37 °C.
On to `Oc1ccccc1-c1ccno1` [2-(5-isoxazolyl)phenol], for which the melting point came to 185 °C.
Next, `Cc1cc(C)nc(NS(=O)(=O)c2ccc(N)cc2)n1` [sulfamethazine]: 200 °C; `COC(=O)n1ccc(C)n1` [methyl 3-methyl-1H-pyrazole-1-carboxylate]: 33 °C; `NC(=O)N1c2ccccc2C=Cc2ccccc21` [carbamazepine]: 190 °C.
For `NNC=O` [formic acid hydrazide] the value was 57 °C; for `N#Cc1ccccc1O` [2-hydroxybenzonitrile], 94 °C; for `O=C(C=C/C(=O)OCC)OCC` [diethyl_maleate], -10 °C.
The molecule `C=CCSc1ncccc1C(=O)O` [2-(allylthio)nicotinic acid] had a melting point of 147 °C.
For `CC(=O)N1CCN(c2ccc(OCC3COC(Cn4ccnc4)(c4ccc(Cl)cc4Cl)O3)cc2)CC1` (stereo unspecified) [ketoconazole] the value was 146 °C; for `c1ccc2c(c1)-c1ccccc1-2` [biphenylene], 115 °C; for `CCOC(=O)C1(c2ccccc2)CCN(CCc2ccc(N)cc2)CC1` [anileridine], 83 °C.
For `CCC1(c2ccccc2)NC(=O)N(C)C1=O` (stereo unspecified) [Mephenytoin] the value was 135 °C; for `CC(C)CC(C)(C)C` [2,2,4-Trimethylpentane], -107 °C.
Molecule `CC(C)(C)Cl` [2-chloro-2-methylpropane] returned a melting point of -25 °C.
For `C=CCC1(C2C=CCCC2)C(=O)NC(=S)NC1=O` (stereo unspecified) [thialbarbital] the value was 148 °C; for `CCCNC(=O)C(C(F)(F)F)C(F)(F)F` [propanamide, 3,3,3-trifluoro-N-propyl-2-(trifluoromethyl)-], 106 °C; for `C[C@@H]1CNC[C@H](C)O1` [cis-2,6-dimethylmorpholine], -85 °C.
For `O=c1n(CCO)c(=O)n(CCO)c(=O)n1CCO` [1,3,5-tris(2-hydroxyethyl)cyanuric acid] the value was 138 °C.
For `CC(C(=O)O)c1ccc(-c2ccccc2)c(F)c1` (stereo unspecified) [Flurbiprofen] the value was 114 °C; for `OC(O)C(Cl)(Cl)Cl` [chloral hydrate], 57 °C.
In turn, `Cc1cc(Cl)c(C)cc1N` [4-chloro-2,5-dimethylaniline] displayed a melting point of 92 °C.
For `CC(C)c1ccc(O)cc1` [4-isopropylphenol] the value was 60 °C.
Next, `C(=NC1CCCCC1)=NC1CCCCC1` [N,N'-dicyclohexylcarbodiimide]: 35 °C.
Next, `C#CCCCCC` [1-heptyne]: -81 °C; `C=CCCCCCC` [1-octene]: -102 °C.
Molecule `O=C(Nc1ccccc1)Nc1ccccc1` [1,3-DIPHENYLUREA] registered a melting point of 232 °C.
For `CCCCCc1ccc(-c2ccc(C#N)cc2)cc1` [4-cyano-4'-n-pentylbiphenyl] the value was 23 °C.
For `O=C(c1ccccc1)c1ccc(Cl)c(Cl)c1` [3,4-dichlorobenzophenone] the value was 102 °C.
Molecule `CCOC(=O)/C=CC(=O)OCC` [diethyl maleate] yielded a melting point of -11 °C.
Regarding `CC(C)NCC(O)COc1cccc2ccccc12` (stereo unspecified) [propranolol], the melting point was determined as 162 °C.
For `Nc1ccc(C(=O)O)cc1` [4-aminobenzoic acid] the value was 188 °C; for `c1ccc2c(c1)cc1ccc3cccc4ccc2c1c34` [Benzo[pqr]tetraphene], 176 °C.
Next, `COC(=O)C12C=CC(CC1)C1C(=O)OC(=O)C12` (stereo unspecified): 117 °C; `CC(c1cc2ccccc2s1)N(O)C(N)=O` (stereo unspecified) [Zileuton]: 145 °C; `O=Cc1ccccc1C=O` [Phthalaldehyde]: 56 °C.
On to `C[C@H](NC(=O)OCc1ccccc1)C(=O)O` [N-benzyloxycarbonyl-l-alanine], for which the melting point is 85 °C.
`O=C(O)/C(=C/c1ccc([N+](=O)[O-])cc1)c1ccccc1` [(E)-2-phenyl-3-(4-nitrophenyl)propenoic acid] gave a melting point of 216 °C.
